From patent US20120295802A1, “METHODS AND COMPOSITIONS FOR CANCER TREATMENT RELATING TO BRCA1 BRCT DOMAIN RECOGNITION OF PHOSPHORYLATED BACH1” (priority 2004, published 2012)
Entries after “also recorded” stand apart in the source; their conditions may differ.

How the values were obtained:
[1] = test system: optimal tandem BRCT domain-interacting phosphopeptide, YDIpSQVFPF, or its non-phosphorylated counterpart; experiment: Peptide binding: in vitro translated [35S] BRCA1 BRCT constructs on bead-immobilized phosphorylated or non-phosphorylated peptide; settings: in vitro transcribed and translated protein; for binding to non-phosphorylated peptide: bead-immobilized biotinylated non-phosphorylated peptide; for binding to phosphorylated peptide: bead-immobilized biotinylated phosphopeptide, SDS-PAGE and autoradiography
Protocol: An optimal phosphopeptide for binding the BRCA1 BRCTs was determined by oriented peptide library screening as described previously. This peptide was synthesized in both its phosphorylated and non-phosphorylated form with a biotin group at the N-terminus using N-α-FMOC-protected amino acids and standard BOP/HOBt coupling chemistry. These peptides were conjugated to streptavidin coated beads (Sigma-Aldrich). The wild-type and mutant BRCA1 BRCT domain-containing constructs (residues 1313-1863) were transcribed and translated in vitro in the presence of [^35S]-methionine using the TNT kit (Promega). The bead-immobilized peptides (10 μL of beads) were added to 10 μL of the in vitro translated [^35S]-labeled protein pool in 150 μL binding buffer (50 mM Tris-HCl (pH7.6), 150 mM NaCl, 0.5% NP-40, 1 mM EDTA, 2 mM DTT, 8 μg/mL pepstatin, 8 μg mL^−1 aprotinin, 8 μg mL^−1 leupeptin, 800 μM Na3VO4, 25 mM NaF). After incubation at 4° C. for 3 hours, the beads were washed three times with 200 μL of binding buffer prior to analysis by SDS-PAGE (12.5% (w/v)) and autoradiography.

[2] = test system: cholinesterases; settings: by cholinesterases; cited from earlier work
[3] = test system: U2OS cells; experiment: Immunofluorescence: localization and nuclear foci formation of myc-tagged BRCA1 tandem BRCT domains; assay type: cell-based; settings: for co-localization with anti-pSer/pThr-Gln epitope antibody staining / nuclear foci formation after DNA damage: U2OS cells, 10 Gy γ-irradiation; for co-localization with anti-pSer/pThr-Gln epitope antibody staining: 2 hrs; for nuclear foci formation after DNA damage: 2 hrs later permeabilized, fixed and stained
Protocol: U2OS cells were seeded onto 18 mm^2 coverslips and transfected with the BRCA1 BRCT construct (residues 1313-1863) and various mutants using FuGene6 transfection reagent (Roche) according to manufacturer's protocol. Thirty hours following transfection, the cells were either treated with 10 Gy of ionizing radiation or mock irradiated and allowed to recover for 120 minutes. Cells were fixed in 3% (v/v) paraformaldehyde/2% (w/v) sucrose for 15 min at RT and permeabilized with a 0.5% (v/v) Triton X-100 solution containing 20 mM Tris-HCl (pH 7.8), 75 mM NaCl, 300 mM sucrose, and 3 mM MgCl2 for 15 min at RT. When necessary, proteins were extracted after IR treatment as described previously. In brief, cells were incubated with extraction buffer (10 mM PIPES pH6.8, 100 mM NaCl, 300 mM sucrose, 3 mM MgCl2, 1 mM EGTA, 0.5% (v/v) Triton X-100) for 5 minutes on ice followed by incubation with extraction stripping buffer (10 mM Tris-HCl pH 7.4, 10 mM NaCl, 3 mM MgCl2, 0.5% (v/v) Triton X-100) for 5 minutes on ice followed by successive washes in ice cold PBS. Slides were fixed as above, stained with primary antibodies at 37° C. for 20 min, then stained with a anti-mouse or anti-rabbit secondary antibody for 20 min (Molecular Probes) at 37° C. Primary antibodies used were mouse anti-myc (Cell Signaling) and rabbit anti-(pSer/pThr)Gln (Cell Signaling). Images were collected on a Axioplan2 microscope (Carl Zeiss) and processed using OpenLab software (Improvision).

[4] = biological target: T1, endogenous BACH1 (Homo sapiens, UniProt Q9BX63); experiment: Co-immunoprecipitation of BRCA1 BRCTs and BACH1 in transfected U2OS cells; assay type: cell-based; settings: U2OS cells transfected with myc-tagged BRCA1 construct; anti-myc immunoprecipitation, anti-BACH1 blot
T1 construct: endogenous in cells; host or cells: U2OS cells (BACH1 endogenous; the BRCA1 fragment transfected from pcDNA3 with FuGene6)
T1 sequence (Q9BX63 1-1249): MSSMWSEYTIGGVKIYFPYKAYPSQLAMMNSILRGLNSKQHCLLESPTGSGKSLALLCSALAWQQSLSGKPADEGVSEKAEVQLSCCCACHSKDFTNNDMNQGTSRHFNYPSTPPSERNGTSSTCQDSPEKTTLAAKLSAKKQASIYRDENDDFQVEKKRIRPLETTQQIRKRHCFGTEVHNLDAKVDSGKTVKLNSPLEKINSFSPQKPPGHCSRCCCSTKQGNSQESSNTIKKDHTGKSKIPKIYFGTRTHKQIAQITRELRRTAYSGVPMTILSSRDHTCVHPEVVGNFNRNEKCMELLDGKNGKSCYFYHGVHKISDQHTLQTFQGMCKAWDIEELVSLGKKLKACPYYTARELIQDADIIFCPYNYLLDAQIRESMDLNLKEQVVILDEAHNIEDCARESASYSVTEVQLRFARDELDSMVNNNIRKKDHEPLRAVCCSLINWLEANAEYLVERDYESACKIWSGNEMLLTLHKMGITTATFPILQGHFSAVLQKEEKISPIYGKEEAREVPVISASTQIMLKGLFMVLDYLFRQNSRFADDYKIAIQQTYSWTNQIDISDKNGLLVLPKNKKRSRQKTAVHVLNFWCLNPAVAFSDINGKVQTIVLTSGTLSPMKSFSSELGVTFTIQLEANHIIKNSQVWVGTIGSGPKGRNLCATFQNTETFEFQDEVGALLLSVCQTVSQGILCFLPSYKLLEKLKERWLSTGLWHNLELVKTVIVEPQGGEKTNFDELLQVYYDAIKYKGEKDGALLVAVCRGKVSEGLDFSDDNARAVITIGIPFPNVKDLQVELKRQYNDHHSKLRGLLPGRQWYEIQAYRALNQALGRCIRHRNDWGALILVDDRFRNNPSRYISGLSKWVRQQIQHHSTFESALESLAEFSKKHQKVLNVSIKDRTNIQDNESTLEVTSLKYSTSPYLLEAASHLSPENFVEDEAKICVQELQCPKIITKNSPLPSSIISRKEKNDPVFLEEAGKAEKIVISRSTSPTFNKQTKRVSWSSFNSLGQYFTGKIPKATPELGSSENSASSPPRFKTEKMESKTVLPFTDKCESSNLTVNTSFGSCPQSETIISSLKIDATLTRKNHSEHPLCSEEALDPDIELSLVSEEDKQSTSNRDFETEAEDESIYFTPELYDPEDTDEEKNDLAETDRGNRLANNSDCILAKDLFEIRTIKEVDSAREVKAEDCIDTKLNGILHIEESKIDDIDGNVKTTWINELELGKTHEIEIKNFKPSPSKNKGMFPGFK
Protocol: U2OS cells were grown to 50% confluency in 100 cm^2 dishes and transfected with the myc-tagged wild-type or mutant BRCA1 BRCT constructs (residues 1313-1863) (SEQ ID NO.: 6) using FuGene6 transfection reagent (Roche) according to manufacturer's protocol. Cells were collected 30 hrs following transfection, lysed in lysis buffer (50 mM Tris-HCl (pH7.6), 150 mM NaCl, 1.0% NP-40, 5 mM EDTA, 2 mM DTT, 8 μg/mL AEBSF, 8 μg mL^−1 aprotinin, 8 μg mL^−1 leupeptin, 2 mM Na3VO4, 10 mM NaF and the phosphatase inhibitors microcystin and okadaic acid). Lysates containing equal amounts of protein (3 mg) was incubated with 3 μL of a mouse anti-myc antibody (Cell Signaling) for 2 hr at 4° C. and then 10 μL of protein G-sepharose beads (Sigma-Aldrich) were added and samples incubated for an additional 2 hr at 4° C. Beads were washed four times with lysis buffer, bound proteins eluted in SDS-PAGE sample buffer, analysed on 6% polyacrylamide gels, transferred to PVDF membrane, and detected by blotting with rabbit anti-BACH1 antibody. A portion of the lysates were also run and blotted with the anti-BACH1 antibody and the anti-myc antibody to further ensure equal protein loading.

[5] = biological target: T2, BACH1 phosphopeptide spot array (Homo sapiens); experiment: Peptide filter array (spot blot) with GST-BRCA1 BRCTs; assay type: binding; settings: 0.25 μM GST-BRCA1 BRCTs M1775R, 10 times the protein of wild type
T2 construct: made in house; host or cells: bacteria (pGEX clone, IPTG induction)
Protocol: An ABIMED peptide arrayer with a computer controlled Gilson diluter and liquid handling robot was used to synthesize peptides onto an amino-PEG cellulose membrane using N-α-FMOC-protected amino acids and DIC/HOBT coupling chemistry. The membranes were blocked in 5% (w/v) milk in Tris-buffered saline containing 0.1% (v/v) Tween-20 (TBS-T) for 1 hr at room temperature, incubated with 0.025 μM GST-BRCA1 BRCTs or 0.25 μM GST-BRCA1 BRCTs M1775R (residues 1633-1863) in 5% (w/v) milk, 50 mM Tris-HCl (pH 7.6), 150 mM NaCl, 2 mM EDTA, 2 mM DTT for 1 hr at room temperature and washed four times with TBS-T. The membranes were then incubated with anti-GST conjugated HRP (Amersham) in 5% (w/v) milk/TBS-T for 1 hr at room temperature, washed five times with TBS-T, and binding analysed by ECL (Perkin-Elmer).

Row | Compound | binding to phosphorylated peptide [1] | co-localization with anti-pSer/pThr-Gln epitope antibody staining [3] | nuclear foci formation after DNA damage [3] | also measured
1 | R1699Q: BRCA1 tandem BRCT domain mutant detected in breast cancer patients (SEQ ID NO.: 14) | retained a small degree of binding |  |  | binding to non-phosphorylated peptide [1]: weak phospho-independent binding; also recorded: bound to both phosphorylated and non-phosphorylated peptides
2 | P1749R: cancer-linked BRCA1 tandem BRCT domain mutant (SEQ ID NO.: 18) | complete loss of phosphopeptide binding |  |  | 
3 | G1738E: cancer-linked BRCA1 tandem BRCT domain mutant (SEQ ID NO.: 17) | complete loss of phosphopeptide binding |  |  | 
4 | C[C@H]1C[C@@H]2[C@H]([C@@H](O)C[C@@]3(C)[C@H]2CC[C@]3(O)C(=O)COC(=O)CCC(=O)[O-])[C@@]2(C)C=CC(=O)C=C12.[Na+] [Methylprednisolone sodium succinate ester] |  |  |  | hydrolysis in vivo to free methylprednisolone [2]: rapidly and extensively hydrolysed
5 | S1655A/K1702M: phosphopeptide-binding double mutant of BRCA1 tandem BRCT domains (SEQ ID NO.: 20) | completely abolished the interaction | completely failed to co-localize | only faint staining with a very fine granular pattern | nuclear foci, in words ([3]; un-irradiated U2OS cells, Triton X-100 extracted prior to fixation): no foci were observed

Now from value to compound, other results behind:

Row | binding to phosphorylated peptide [1] | Compound | co-localization with anti-pSer/pThr-Gln epitope antibody staining [3] | nuclear foci formation after DNA damage [3] | also measured
6 | complete loss of phosphopeptide binding | Y1853X: BRCA1 BRCT mutant which truncates the last 11 residues (SEQ ID NO.: 21) |  |  | 
7 | complete loss of phosphopeptide binding | 5382InsC: BRCA1 frameshift mutation that results in a stop codon at position 1829 (SEQ ID NO.: 22) |  |  | 
8 | clearly bind | Wild-type BRCA1 tandem BRCT domains: myc-tagged human BRCA1 BRCT construct, residues 1313-1863, with SV40 nuclear localization sequence; GST fusion of residues 1633-1863 for the filter array | largely co-localized | demonstrated sharp punctate nuclear foci | in vivo interaction with full-length endogenous BACH1 [4]: easily detected; binding to non-phosphorylated peptide [1]: not non-phosphorylated peptides
9 | complete loss of phosphopeptide binding | M1775R: cancer-associated BRCA1 tandem BRCT domain mutant (SEQ ID NO.: 10) | less co-localization with pSer/pThr-Gln staining foci than the wild-type protein | also formed punctate nuclear foci, although these were slightly reduced in number; also recorded: can still form nuclear foci after DNA damage | in vivo interaction with full-length endogenous BACH1 [4]: completely loses the ability to interact with wild-type BACH1; binding to BACH1 phosphopeptide in which the +3 Phe is mutated to Asp or Glu [5]: bind weakly; also recorded: binds weakly to phosphopeptides with altered motif specificity
